The results in this text go back to patent publication US9981972B2, “N-hydroxy bicyclic hydantoin carbamates as tools for identification of serine hydrolase targets” (ABIDE THERAPEUTICS, INC., priority 2014, dated 2018).

Series [1] has as its system FP-sensitive SHs in the mouse brain membrane proteome. The series can be described thus: Gel-based competitive ABPP in vitro, mouse brain membrane proteome, anti-targets. Type of series: biochemical. Conditions: for Anti-target(s) 0.1 μM: SHs with at least 50% inhibition at 0.1 μM compound; for Anti-target(s) 1 μM: SHs with at least 50% inhibition at 1 μM compound; for Anti-target(s) 10 μM: SHs with at least 50% inhibition at 10 μM compound; for Anti-target(s) 100 μM: SHs with at least 50% inhibition at 100 μM compound. An outline of the steps:
(§1)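 Mouse brain membrane proteome (1 mg/mL in DPBS) was treated with compound (0.1-100 μM) for 30 min at 37 °C, then labeled with FP-Rh (2 μM final, 30 min, 25 °C). Bands were resolved by SDS-PAGE and scanned in-gel, with inhibition taken from band optical density versus DMSO. Targets counted as active or anti-targets at ≥50% inhibition.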

Series [2] in a line: Analysis of cytotoxicity (WST-1). Type of series: cell-based, human. Conditions: human, HeLa cells; HeLa, 48 h, WST-1. Here is the method: Assay Overview: The purpose of this assay was to determine cytotoxicity of powder samples of test compounds. In this assay, HeLa cells in either serum-free medium or medium containing fetal calf serum (FCS) were incubated with test compounds, followed by determination of cell viability. The assay utilized the WST-1 substrate, which was converted into colorimetric formazan dye by the metabolic activity of viable cells. The amount of formed formazan directly correlated to the number of metabolically active cells in the culture.
Protocol Summary: This assay was started by seeding HeLa cells in DMEM medium supplemented with 10% FCS and 1× Pen-Strep-Glutamine in a 96-well plate. Cells were incubated at 37° C. in a humidified incubator until 80% confluent (24 hours). Medium was removed, and 100 μL of fresh medium (serum-free or supplemented with 10% FCS), pre-mixed with DMSO or test compound, was added to each well. Cells were incubated for 48 hours at 37° C. in a humidified incubator and cell viability was determined by the WST-1 assay (Roche) according to manufacturer instructions. CC50 values were determined from dose-response curves from three replicates at each inhibitor concentration (10, 100, 1000, 10000, 100000 nM), compared to six replicates of cells treated with DMSO only.
For orientation: Formazan colour is commonly taken as a measure of viable cells.

Series [3] addresses T1, human LYPLA2 (Homo sapiens, UniProt O95372).
T1 construct: endogenous human LYPLA1/2 in a HeLa soluble proteome; endogenous in cells; host or cells: HeLa (soluble proteome in vitro; cultured cells in situ)
Briefly: IC50 by gel-based competitive ABPP in vitro, soluble HeLa cell proteome. As to conditions: human LYPLA isoform, three replicates; Table 2 prints no unit, nM; read-out: LYPLA2 IC50. Format: biochemical. The method, then:
(§2) Assay Overview: The purpose of this assay was to determine IC50 values of powder samples of test compounds for enzyme of interest activity, and anti-targets in a complex proteomic lysate using a gel-based competitive ABPP assay. In this assay, a complex proteome was incubated with test compound followed by reaction with FP-Rh and SDS-PAGE analysis as described above.
(§3) Protocol Summary: Soluble HeLa cell proteome (50 μL reaction volume, 1 mg/mL in DPBS) or mouse brain membrane proteome (50 μL reaction volume, 1 mg/mL in DPBS) was treated with varying concentrations of test compound (1 μL of a 50× stock in DMSO) for 30 minutes at 37° C. FP-Rh (1 μL of 50× stock in DMSO) was added to a final concentration of 2 μM. The reaction was incubated for 30 minutes at 25° C., quenched with 16 μL 4×SDS-PAGE loading buffer (reducing), separated by SDS-PAGE and visualized by in-gel fluorescent scanning. The percentage activity remaining was determined by measuring the integrated optical density of the enzymes of interest, and anti-target bands relative to a DMSO-only (no compound) control. IC50 values were determined from dose-response curves from three replicates at each inhibitor concentration: 1, 10, 100, 1000, 10000 nM and 0.01, 0.1, 1, 10, 100, 1000, 10000, 50000, and 100000 nM.

The target of series [4] is T2, human LYPLA1 (Homo sapiens, UniProt O75608).
T2 construct: endogenous human LYPLA1/2 in a HeLa soluble proteome; endogenous in cells; host or cells: HeLa (soluble proteome in vitro; cultured cells in situ)
The series is described as above. Type of series: biochemical. As to conditions: human LYPLA isoform, three replicates; Table 2 prints no unit, nM; read-out: LYPLA1 IC50. Here is the method:
as §2, §3

In series [5] the target is T3, LYPLA1 (Mus musculus, UniProt P97823).
T3 construct: a complex proteome endogenously expressing LYPLA1/2 was incubated with test compound; from tissue; host or cells: mouse brain, membrane fraction
Briefly: Gel-based competitive ABPP in vitro, mouse brain membrane proteome. Type of series: biochemical. As to conditions: 30 min, one replicate; for inhibition at 0.1 µM: 0.1 μM compound, read-out: LYPLA1 % INH 0.1 μM; for inhibition at 1 µM: 1 μM compound, read-out: LYPLA1 % INH 1 μM; for inhibition at 10 µM: 10 μM compound, read-out: LYPLA1 % INH 10 μM; for inhibition at 100 µM: 100 μM compound, read-out: LYPLA1 % INH 100 μM. The method, boiled down:
as §1

In series [6] the target is T4, LYPLA2 (Mus musculus, UniProt Q9WTL7).
T4 construct: a complex proteome endogenously expressing LYPLA1/2 was incubated with test compound; from tissue; host or cells: mouse brain, membrane fraction
The description is as above. Conditions: 30 min, one replicate; for inhibition at 0.1 µM: 0.1 μM compound, read-out: LYPLA2 % INH 0.1 μM; for inhibition at 1 µM: 1 μM compound, read-out: LYPLA2 % INH 1 μM; for inhibition at 10 µM: 10 μM compound, read-out: LYPLA2 % INH 10 μM; for inhibition at 100 µM: 100 μM compound, read-out: LYPLA2 % INH 100 μM. Format: biochemical. The method, boiled down: as §1

The subject of series [7] is human SHs. The series can be described thus: ABPP-SILAC analysis to identify SH targets of Compound 5. Format: biochemical. From the text: Compound 5 was selected for analysis by mass spectrometry (MS)-based ABPP methods to assess the range of SHs targeted by N-Hydroxy bicyclic hydantoin carbamates.

“Also recorded” adds a separate entry of the source. Some results are limits rather than exact numbers.

T4 sequence (Q9WTL7 whole entry): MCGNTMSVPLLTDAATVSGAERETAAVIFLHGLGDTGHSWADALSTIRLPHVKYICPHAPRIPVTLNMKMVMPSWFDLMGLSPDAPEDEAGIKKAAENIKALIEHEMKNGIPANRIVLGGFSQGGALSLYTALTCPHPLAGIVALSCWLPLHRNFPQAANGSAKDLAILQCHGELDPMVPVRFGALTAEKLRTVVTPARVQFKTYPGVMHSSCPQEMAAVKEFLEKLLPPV
T3 sequence (P97823 whole entry): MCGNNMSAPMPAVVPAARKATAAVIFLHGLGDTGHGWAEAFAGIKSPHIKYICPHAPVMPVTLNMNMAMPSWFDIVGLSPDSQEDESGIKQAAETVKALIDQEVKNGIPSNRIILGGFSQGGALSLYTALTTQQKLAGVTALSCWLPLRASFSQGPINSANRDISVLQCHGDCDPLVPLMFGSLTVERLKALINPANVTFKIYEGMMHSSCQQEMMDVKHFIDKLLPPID
T1 sequence (O95372 whole entry): as the sequence (Q9WTL7 whole entry) above, with N154A, T193S counted along it
T2 sequence (O75608 whole entry): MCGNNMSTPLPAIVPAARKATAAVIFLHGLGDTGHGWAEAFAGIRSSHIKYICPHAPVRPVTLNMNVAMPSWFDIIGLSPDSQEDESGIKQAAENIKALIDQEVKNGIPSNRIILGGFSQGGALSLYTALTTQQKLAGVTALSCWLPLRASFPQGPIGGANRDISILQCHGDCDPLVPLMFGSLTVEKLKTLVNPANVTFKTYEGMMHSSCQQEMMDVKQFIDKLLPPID

As a reminder, the CC50 is the concentration at which the toxic effect on the cells reaches its halfway point. Usually IC50 stands for the point on the concentration scale where inhibition reaches its midpoint. Turning to `O=C(ON1C(=O)C2CN(C(=O)N3CCCCC3)CCN2C1=O)N1CCC(CCc2ccc(Cl)cc2)CC1` (stereo not shown) [Compound 2, 1,3-dioxo-7-(piperidine-1-carbonyl)hexahydroimidazo[1,5-a]pyrazin-2(3H)-yl 4-(4-chlorophenethyl)piperidine-1-carboxylate], in series [1], the “Anti-target(s) 0.1 μM” value is “ABHD6”, the “Anti-target(s) 1 μM” value is “FAAH,; also recorded: ABHD6”, the “Anti-target(s) 10 μM” value is listed as “FAAH,; also recorded: ABHD12,; also recorded: ABHD4,; also recorded: MAGL,; also recorded: ABHD6” and the “Anti-target(s) 100 μM” value was “FAAH,; also recorded: ABHD12,; also recorded: ABHD4,; also recorded: MAGL,; also recorded: ABHD6”. The CC50 at 48 h in series [2] was ≥ 10000 nM. Moreover, the IC50 in series [3] turned out to be 258 nM. Further, the IC50 in series [4] came to 154 nM. For the same compound, in series [5], the inhibition at 0.1 µM is 50%, the inhibition at 1 µM amounted to 100%, the inhibition at 10 µM was 100% and the inhibition at 100 µM came to 100%. In series [6], the inhibition at 0.1 µM was 50%, the inhibition at 1 µM was 100%, the inhibition at 10 µM came out at 100% and the inhibition at 100 µM stood at 100%.

Take `CC(C)(C)OC(=O)N1CCN2C(=O)N(OC(=O)N3CCC(CCc4ccc(Cl)cc4)CC3)C(=O)C2C1` (stereo not shown) [Compound 5, tert-butyl 2-(4-(4-chlorophenethyl)piperidine-1-carbonyloxy)-1,3-dioxohexahydroimidazo[1,5-a]pyrazine-7(1H)-carboxylate]: in series [1], the “Anti-target(s) 0.1 μM” value is recorded as “ABHD6”, the “Anti-target(s) 1 μM” value is on record as “FAAH,; also recorded: ABHD6”, the “Anti-target(s) 10 μM” value is recorded as “FAAH,; also recorded: ABHD12,; also recorded: ABHD6” and the “Anti-target(s) 100 μM” value was “FAAH,; also recorded: ABHD12,; also recorded: MAGL,; also recorded: ABHD6”. Moreover, in series [7], the “SHs inhibited by Compound 5 (three-fold or greater decrease in signal)” value was “ABHD6 and MGLL and ABHD4 and ABHD12 and PLA2G15 and PNPLA4”. In addition, in series [5], the inhibition at 0.1 µM came out at 50%, the inhibition at 1 µM was determined as 80%, the inhibition at 10 µM stood at 100% and the inhibition at 100 µM was 100%. Besides, in series [6], the inhibition at 0.1 µM came out at 50%, the inhibition at 1 µM was 80%, the inhibition at 10 µM was 100% and the inhibition at 100 µM stood at 100%.
